Test results taken from patent US7576177B2, “Hsp peptides and analogs for modulation of immune responses via antigen presenting cells” (Andromeda Biotech Ltd., priority 2002, dated 2009).
Like-named read-outs stand apart in the source and are kept apart here.

Legend:
[1] = test system: peripheral blood mononuclear cells cultured with GM-CSF and IL4 (dendritic cells); assay: Peripheral blood derived dendritic cells: secreted cytokines (IP-10, IL-8) and cell surface antigens (CD83, CD86); assay type: cell-based, human; conditions: for IL-8 / IP-10: overnight
Experimental: The effect of the compositions of the present invention on peripheral blood derived dendritic cells, was tested according to a protocol described by Re, F. and Strominger, J. L. 2001. Toll-like receptor 2 (Tlr2) and Tlr4 differentially activate human dendritic cells. (J Biol Chem 276: 37692-9). According to this method immature dendritic cells derived from human peripheral blood are used. The outcome after incubating the cells with tested molecules is different if the stimulation is through the Toll 4 receptor or the Toll 2 receptor. According to the authors, Toll 2 signaling by stimulation with zymosan is associated with a Th2 kind of response (exemplified by IL-8) and Toll 4 signaling, such as obtained by LPS stimulation (exemplified by IP-10), with a Th1 type of response. The compositions of the present invention were tested using a similar assay system in order to check which stimulation type they induce. […] The increase in CD86 expression after exposure of APCs to Hsps or Hsp derived peptides is important since CD86 (B7.2) is an essential component of the immunological synapse formed between T cells and APC. This synapse consists of CD80 and CD86 on the side of the APC and CD28 and CD40 on the side of the T cell. T cell recognition of peptide on APC without the concurrent expression of CD86 gives rise to anergy instead of a T cell response. Therefore in order to produce a response all components must be present.
The assay was based on the protocol described by Re, F. and Strominger, J. L. 2001. Toll-like receptor 2 (Tlr2) and Tlr4 differentially activate human dendritic cells. (J. Biol Chem 276: 37692-9).
Peripheral blood mononuclear cells were prepared from leucocytes from blood lots obtained from the blood bank. The cells were plated at 10^8 cells/10 ml/Petri dish in RPMI medium including 10% FCS and allowed to adhere at 37° C. for 2 hours. At the end of this time, the non-adherent cells were washed off the plates with PBS and the adherent cells resuspended in fresh medium as before. The cells were then cultured for at least 8 days with the addition of GM-CSF and IL4 with the medium changed every 4 days. After this time, the cells were harvested and cultured overnight with LPS, zymosan or p277(Val^6-Va^11). The next day, the supernatant was collected for assay of the secreted cytokines (IP-10 and IL-8) and the cells were harvested for investigation of the cell surface antigens (CD83, CD86). CD83 is an antigen characteristic of dendritic cells. […] The second marker, CD86 (B7.2) is characteristic of mature dendritic cells. The marker CD86 is an essential component of the immunological synapse formed between T cells and APC. This synapse consists of CD80 and CD86 on the side of the APC and CD28 and CD40 on the side of the T cell. This is of course in addition to the specific recognition between the T cell receptor and peptide held in the MHC of the APC. T cell recognition of peptide on APC without the concurrent expression of CD86 gives rise to anergy instead of a T cell response.

[2] = test system: peripheral blood monocytes; assay: Peripheral blood monocytes: IP-10 after direct stimulation or preincubation then LPS; assay type: cell-based, human
Experimental: Peripheral blood mononuclear cells were prepared from leucocytes of blood lots obtained from the blood bank. The cells were plated at a concentration of 4×10^6 cell/ml/well in 24 well tissue culture dishes in medium containing 10% fetal calf serum. The cells were allowed to adhere for 2 hours at 37° C. After this time, non-adherent cells were washed away and the adherent cells incubated in fresh medium containing 10% human AB serum for 6-8 days, changing the medium after 4 days. These culture conditions were reported to give rise to monocytes.
For stimulation the medium was replaced with medium without serum. For preincubation, the cells were exposed overnight to the tested compounds at various concentrations and then LPS was added. The supernatant was collected after a further overnight incubation and tested for various cytokines by ELISA assays.

THP-1 cells = test system: THP-1 cells
Experimental: Alternatively, APCs exposed to Hsp peptides and analogs are tested for direct influence on cytokine production. For example, pre-monocyte like derived cells (e.g. human monocytic cell line THP-1), which can be differentiated to monocytes by treatment with 100 nM phorbol ester (12-O-tetradecanoylphorbol-13-acetate, PMA) for 72 hours, are used. […] Differentiated cells are preincubated with the tested compounds or incubated after PMA treatment following subsequent stimulus with LPS. Secreted amounts of cytokines (such as TNF, and IP-10) are measured. Another example for direct measuring of cytokines secreted from APCs exposed to Hsp peptides and analogs involve measurement of cytokines (e.g. IP-10 and IL-8) secretion in human peripheral blood mononuclear cells cultured first with GM-CSF and IL4 and then with LPS, zymosan or tested peptide. These cells are also used for investigation of cell surface antigens (e.g. CD83 and CD86) indicating their maturation.
The human cell line THP-1 was used for this assay. These cells are pre-monocyte like derived from acute monocytic leukemia and can be differentiated to monocytes by treatment with 100 nM phorbol ester (12-O-tetradecanoylphorbol-13-acetate, PMA) for 72 hours. During this time the cells change morphology from round cells growing in suspension to larger, flat, adherent cells.

mouse monocyte line J774 = assay: Secretion of oxygen free radicals (oxidative burst) from mouse monocyte line; assay type: cell-based; conditions: J774, FIG. 5
[3] = differentiated THP-1 cells incubated with peptide
[4] = preincubation, subsequent stimulus with 10 ng/ml LPS

Sequence: VLGGGVALLRVIPALDSLTPANED [p277(Val^6-Val^11)]
- IL-8 secretion (in words) ([1]; overnight stimulation): resulted in IL-8 secretion
- IP-10 secretion (in words) ([1]; overnight stimulation): no IP-10 secretion
- maturation: percentage of cells stained with anti-CD86 ([1]; overnight stimulation, FIG. 3): increase of maturation
- IL-8 ([1]; stimulus 0.5 ng/ml): 2368 pg/mL
- IP-10 ([1]; stimulus 0.5 ng/ml): -1 pg/mL
- IP-10 ([1]; stimulus 5 ng/ml): 2 pg/mL
- IL-8 ([1]; stimulus 50 ng/ml): 2574 pg/mL
- IP-10 ([1]; stimulus 50 ng/ml): 39 pg/mL
- IP-10 ([1]; stimulus 0.5 μg/ml): 21 pg/mL
- amount of IP-10 produced in response to stimulus with LPS after preincubation ([2]; overnight preincubation, then LPS, FIG. 4): did increase the amount of IP-10
- IP-10 after direct stimulation ([2]; peripheral blood monocytes, no preincubation, FIG. 4): did not give rise directly to II-10
- IP-10 in response to hsp60 after preincubation ([2]; preincubation with p277(Val^6-Val^11), then hsp60): did not give rise to IP-10
- direct IP-10 secretion (THP-1 cells; [3]): did not secrete TNF, or IP-10 directly
- direct TNF secretion (THP-1 cells; [3]): did not secrete TNF
- % stimulation of IP-10 secretion (THP-1 cells; preincubation with 0.0128 ng/ml, then 10 ng/ml LPS): −48%
- % stimulation of IP-10 secretion (THP-1 cells; preincubation with 0.064 ng/ml, then 10 ng/ml LPS): 52%
- % stimulation of IP-10 secretion (THP-1 cells; preincubation with 0.32 ng/ml, then 10 ng/ml LPS): 61%
- % stimulation of IP-10 secretion (THP-1 cells; preincubation with 1.6 ng/ml, then 10 ng/ml LPS): 46%
- % stimulation of IP-10 secretion (THP-1 cells; preincubation with 8 ng/ml, then 10 ng/ml LPS): 77%
- % stimulation of IP-10 secretion (THP-1 cells; preincubation with 40 ng/ml, then 10 ng/ml LPS): 141%
- % stimulation of IP-10 secretion (THP-1 cells; preincubation with 200 ng/ml, then 10 ng/ml LPS): 45%
- % stimulation of IP-10 secretion (THP-1 cells; preincubation with 1000 ng/ml, then stimulation with 10 ng/ml LPS): 45%
- amount of IP-10 secreted after preincubation and LPS (in words) (THP-1 cells; [4]): increased amount of IP-10 secreted
- amount of TNF after preincubation and LPS (THP-1 cells; [4]): not significantly affected
- inhibition of the oxidative burst (secretion of oxygen free radicals) (mouse monocyte line J774): effective
- direct stimulation of TNFα (cell lines): ineffective
- inhibition of TNFα secreted as a result of stimulation by LPS or hsp60 (cell lines): ineffective
